# Assay results published in PubChem BioAssay (NCI).
#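 Exposure lasted 48 hours, with cells grown in 96-well plates and compounds tested at five concentrations. At the GI50, growth is halved. TGI denotes the concentration required for complete inhibition of growth.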
# Key:
# Assay in all cases: NCI tumour cell line growth inhibition, 48 h
# UACC-257 melanoma = test system: UACC-257 melanoma
# SF-268 CNS = test system: SF-268 CNS
# UO-31 renal = test system: UO-31 renal
# ACHN renal = test system: ACHN renal
# OVCAR-5 ovarian = test system: OVCAR-5 ovarian
# COLO 205 colon = test system: COLO 205 colon
# DU-145 prostate = test system: DU-145 prostate
# CAKI-1 renal = test system: CAKI-1 renal
# M14 melanoma = test system: M14 melanoma
# OVCAR-4 ovarian = test system: OVCAR-4 ovarian
# HCC-2998 colon = test system: HCC-2998 colon
# NCI-H226 lung = test system: NCI-H226 lung
# MDA-MB-231 breast = test system: MDA-MB-231 breast
# NCI-H23 lung = test system: NCI-H23 lung
# HT29 colon = test system: HT29 colon
# CCRF-CEM leukemia = test system: CCRF-CEM leukemia
# SNB-75 CNS = test system: SNB-75 CNS
# PC-3 prostate = test system: PC-3 prostate
# HL-60(TB) leukemia = test system: HL-60(TB) leukemia
# OVCAR-8 ovarian = test system: OVCAR-8 ovarian
# HOP-92 NSCLC = test system: HOP-92 NSCLC
# RPMI-8226 leukemia = test system: RPMI-8226 leukemia
# BT-549 breast = test system: BT-549 breast
# A549 NSCLC = test system: A549 NSCLC
# SF-295 CNS = test system: SF-295 CNS
# NCI/ADR-RES ovarian = test system: NCI/ADR-RES ovarian
# HOP-62 NSCLC = test system: HOP-62 NSCLC
# SK-OV-3 ovarian = test system: SK-OV-3 ovarian
# 786-0 renal = test system: 786-0 renal
# NCI-H460 lung = test system: NCI-H460 lung
# IGROV1 ovarian = test system: IGROV1 ovarian
# MCF7 breast = test system: MCF7 breast
# MOLT-4 leukemia = test system: MOLT-4 leukemia
# HS 578T breast = test system: HS 578T breast
# KM12 colon = test system: KM12 colon
# T-47D breast = test system: T-47D breast
# SF-539 CNS = test system: SF-539 CNS
# K-562 leukemia = test system: K-562 leukemia
# LOX IMVI melanoma = test system: LOX IMVI melanoma
# EKVX NSCLC = test system: EKVX NSCLC
# SW-620 colon = test system: SW-620 colon
# A498 renal = test system: A498 renal
# MDA-MB-435 = test system: MDA-MB-435
# RXF 393 renal = test system: RXF 393 renal
# SK-MEL-2 melanoma = test system: SK-MEL-2 melanoma
# NCI-H522 lung = test system: NCI-H522 lung
# UACC-62 melanoma = test system: UACC-62 melanoma
# HCT-116 colon = test system: HCT-116 colon
# MALME-3M melanoma = test system: MALME-3M melanoma
# SN12C renal = test system: SN12C renal
# OVCAR-3 ovarian = test system: OVCAR-3 ovarian
# SNB-19 CNS = test system: SNB-19 CNS
# U251 CNS = test system: U251 CNS
# HCT-15 colon = test system: HCT-15 colon
# SK-MEL-5 melanoma = test system: SK-MEL-5 melanoma
# TK-10 renal = test system: TK-10 renal
# SR leukemia = test system: SR leukemia
# SK-MEL-28 melanoma = test system: SK-MEL-28 melanoma
compound,measurement,setting,value
COc1cccc(-n2ncc3c(N/N=C/c4ccncc4)ncnc32)c1,GI50,UACC-257 melanoma,> 25 µM
same,TGI,UACC-257 melanoma,> 25 µM
same,GI50,SF-268 CNS,> 25 µM
same,TGI,SF-268 CNS,> 25 µM
same,GI50,UO-31 renal,2.45 µM
same,TGI,UO-31 renal,> 25 µM
same,GI50,ACHN renal,0.985 µM
same,TGI,ACHN renal,> 25 µM
same,GI50,OVCAR-5 ovarian,> 25 µM
same,TGI,OVCAR-5 ovarian,> 25 µM
same,GI50,COLO 205 colon,11.5 µM
same,TGI,COLO 205 colon,> 25 µM
same,GI50,DU-145 prostate,4.55 µM
same,TGI,DU-145 prostate,> 25 µM
same,GI50,CAKI-1 renal,0.769 µM
same,TGI,CAKI-1 renal,> 25 µM
same,GI50,M14 melanoma,3.56 µM
same,TGI,M14 melanoma,> 25 µM
same,GI50,OVCAR-4 ovarian,> 25 µM
same,TGI,OVCAR-4 ovarian,> 25 µM
same,GI50,HCC-2998 colon,> 25 µM
same,TGI,HCC-2998 colon,> 25 µM
same,GI50,NCI-H226 lung,> 6.17 µM
same,TGI,NCI-H226 lung,> 25 µM
same,GI50,MDA-MB-231 breast,3.51 µM
same,TGI,MDA-MB-231 breast,> 25 µM
same,GI50,NCI-H23 lung,> 25 µM
same,TGI,NCI-H23 lung,> 25 µM
same,GI50,HT29 colon,2.24 µM
same,TGI,HT29 colon,> 25 µM
same,GI50,CCRF-CEM leukemia,> 13.4 µM
same,TGI,CCRF-CEM leukemia,> 25 µM
same,GI50,SNB-75 CNS,2.48 µM
same,TGI,SNB-75 CNS,> 25 µM
same,GI50,PC-3 prostate,> 17.1 µM
same,TGI,PC-3 prostate,> 25 µM
same,GI50,HL-60(TB) leukemia,8.66 µM
same,TGI,HL-60(TB) leukemia,> 25 µM
same,GI50,OVCAR-8 ovarian,4.88 µM
same,TGI,OVCAR-8 ovarian,> 25 µM
same,GI50,HOP-92 NSCLC,> 25 µM
same,TGI,HOP-92 NSCLC,> 25 µM
same,GI50,RPMI-8226 leukemia,> 25 µM
same,TGI,RPMI-8226 leukemia,> 25 µM
same,GI50,BT-549 breast,> 25 µM
same,TGI,BT-549 breast,> 25 µM
same,GI50,A549 NSCLC,> 14.5 µM
same,TGI,A549 NSCLC,> 25 µM
same,GI50,SF-295 CNS,1.35 µM
same,TGI,SF-295 CNS,> 25 µM
same,GI50,NCI/ADR-RES ovarian,> 25 µM
same,TGI,NCI/ADR-RES ovarian,> 25 µM
same,GI50,HOP-62 NSCLC,> 25 µM
same,TGI,HOP-62 NSCLC,> 25 µM
same,GI50,SK-OV-3 ovarian,1.7 µM
same,TGI,SK-OV-3 ovarian,> 25 µM
same,GI50,786-0 renal,4.66 µM
same,TGI,786-0 renal,> 25 µM
same,GI50,NCI-H460 lung,2.57 µM
same,TGI,NCI-H460 lung,> 25 µM
same,GI50,IGROV1 ovarian,7.95 µM
same,TGI,IGROV1 ovarian,> 25 µM
same,GI50,MCF7 breast,> 12.2 µM
same,TGI,MCF7 breast,> 25 µM
same,GI50,MOLT-4 leukemia,> 25 µM
same,TGI,MOLT-4 leukemia,> 25 µM
same,GI50,HS 578T breast,0.322 µM
same,TGI,HS 578T breast,> 6.41 µM
same,GI50,KM12 colon,2.9 µM
same,TGI,KM12 colon,> 25 µM
same,GI50,T-47D breast,> 25 µM
same,TGI,T-47D breast,> 25 µM
same,GI50,SF-539 CNS,4.27 µM
same,TGI,SF-539 CNS,> 25 µM
same,GI50,K-562 leukemia,0.779 µM
same,TGI,K-562 leukemia,> 25 µM
same,GI50,LOX IMVI melanoma,1.01 µM
same,TGI,LOX IMVI melanoma,> 25 µM
same,GI50,EKVX NSCLC,> 25 µM
same,TGI,EKVX NSCLC,> 25 µM
same,GI50,SW-620 colon,5.22 µM
same,TGI,SW-620 colon,> 25 µM
same,GI50,A498 renal,0.326 µM
same,GI50,MDA-MB-435,1.46 µM
same,TGI,MDA-MB-435,> 25 µM
same,GI50,RXF 393 renal,0.672 µM
same,TGI,RXF 393 renal,> 25 µM
same,GI50,SK-MEL-2 melanoma,4.33 µM
same,TGI,SK-MEL-2 melanoma,> 25 µM
same,GI50,NCI-H522 lung,> 14.5 µM
same,TGI,NCI-H522 lung,> 25 µM
same,GI50,UACC-62 melanoma,4.28 µM
same,TGI,UACC-62 melanoma,> 25 µM
same,GI50,HCT-116 colon,2.8 µM
same,TGI,HCT-116 colon,> 25 µM
same,GI50,MALME-3M melanoma,> 25 µM
same,TGI,MALME-3M melanoma,> 25 µM
same,GI50,SN12C renal,4.95 µM
same,TGI,SN12C renal,> 25 µM
same,GI50,OVCAR-3 ovarian,1.9 µM
same,TGI,OVCAR-3 ovarian,> 25 µM
same,GI50,SNB-19 CNS,> 25 µM
same,TGI,SNB-19 CNS,> 25 µM
same,GI50,U251 CNS,1.1 µM
same,TGI,U251 CNS,> 25 µM
same,GI50,HCT-15 colon,3.57 µM
same,TGI,HCT-15 colon,> 25 µM
same,GI50,SK-MEL-5 melanoma,0.799 µM
same,TGI,SK-MEL-5 melanoma,> 9.75 µM
same,GI50,TK-10 renal,2.75 µM
same,TGI,TK-10 renal,> 25 µM
same,GI50,SR leukemia,2.12 µM
same,TGI,SR leukemia,> 25 µM
same,GI50,SK-MEL-28 melanoma,> 25 µM
same,TGI,SK-MEL-28 melanoma,> 25 µM
